Laboratory results reported in USRE38551E1, “Anticonvulsant enantiomeric amino acid derivatives” (priority 1996, dated 2004).
Read-outs that look alike come from different tables or passages of the source. Marks after values point to notes of the source that are not given here.

What was measured:
hexobarbital sleep time = hexobarbital sleep time test; type: in vivo; details: rats
Description: All rats subjected to the 5-day tolerance studies were maintained in their home cage for 24 hours and then subjected to the hexobarbital sleep time test (day 6). Each rat in each of the 3 groups was given 100 mg/kg of hexobarbital (i.p.) and the sleep time measured to the nearest minute. The mean sleep time and S.E. for each group were calculated.

liver microsomal system = assay: 7-day liver microsomal studies; type: in vivo, rats; details: rat, in vivo, 48 mg/kg
Description: Two of the three groups of animals subjected to the hexobarbital sleep time test (chronically treated and vehicle control groups) were continued on their respective original treatment regimen for two days (days 6 and 7) and 24 hours later (day 8) subjected to liver microsomal studies. The rats were decapitated and the livers perfused with 0.9% sodium chloride solution. The livers were removed, weighed, and homogenized in 0.25M sucrose. Microsomes were prepared and their drug metabolizing capabilities (microsomal protein yield; cytochrome P-450 concentration; p-nitroanisole O-demethylase and NADPH cytochrome c reductase activities; norbenzphetamine MI complex formation; and glucuronyl transferase, erythromycin demethylase, and ethylmorphine demethylase activities) measured (Arch. Biochem. Biophys. 143: 318-329, 1971).

liver = details: rats, p.o., short term
[1] = test system: Crl:CD BR Charles River rats
Description: II. Five groups of Crl:CD® BR Charles River rats were each exposed to BAMP or a control substance (0.5% methylcellulose [400 Cps] aqueous solution in distilled water) according to the following dosage schedule:
Group 1—vehicle control (10 males, 10 females), 0 mg/kg/day
Group 2—low (10 males, 10 females), 10 mg/kg/day
Group 3—mid low (10 males, 10 females), 30 mg/kg/day
Group 4—mid high (10 males, 10 females), 100 mg/kg/day
Group 5—high (10 males, 10 females), 300 mg/kg/day
Exposure was by oral gavage, once daily, for a period of at least 30 consecutive days, after which all animals were sacrificed for pathologic evaluation.
All animals were weighed once prior to initiation of dosing and weekly thereafter. Food-fasted (overnight) blood samples for clinical chemistry and hematology were collected at termination. Blood samples were collected from the orbital venous plexus using carbon dioxide (mixed with oxygen) as an anesthetic.
All animals were sacrificed, at the appropriate time, by exsanguination, under barbiturate anesthesia, and all were subjected to a necropsy examination.
Clinical observations were reviewed at necropsy, and all grossly observed abnormalities were entered directly into the computerized data collection system. Adrenals, brain with brainstem, heart, kidneys, liver, ovaries, pituitary, testes with epididymides, and thyroid with parathyroids were weighted from each animal. The pituitary and thyroid with parathyroids were weighed after fixation and all of the other organs were weighed at the time of necropsy.
As required by the protocol, histologic evaluations were conducted on liver only from all animals of Groups 1 (control) and 5 (high). All histologic findings were entered directly into the computerized data capture system. Lesions were graded as to relative severity or degree of involvement (1=minimal, 2=slight, 3=moderate, 4=moderately severe, 5=severe). In general, minimal represents the least consistently recognizable degree of any given histoniorphologic alteration, while severe would represent the most extreme degree reasonably possible, with the other three grades occupying a continuum between the two extremes. The grades are subjective, comparative evaluations, based on morphology alone and are not intended by themselves to imply any degree of functional impairment.

[2] = female, group 2, 10 mg/kg/day, 30 days oral
[3] = female, group 3, 30 mg/kg/day, 30 days oral
[4] = female, group 4, 100 mg/kg/day × 30 days oral
[5] = female, group 4, 100 mg/kg/day, 30 days oral
[6] = female, group 5, 300 mg/kg/day × 30 days oral
[7] = female, group 5, 300 mg/kg/day, 30 days oral
[8] = male, group 2, 10 mg/kg/day, 30 days oral
[9] = male, group 3, 30 mg/kg/day, 30 days oral
[10] = male, group 4, 100 mg/kg/day × 30 days oral
[11] = male, group 4, 100 mg/kg/day, 30 days oral
[12] = male, group 5, 300 mg/kg/day × 30 days oral
[13] = male, group 5, 300 mg/kg/day, 30 days oral

CC(=O)NC(C)C(=O)NCc1ccccc1 (racemic) [compound 1, N-Acetyl-D,L-alanine-N′-benzylamide]
hexobarbital sleep time (hexobarbital sleep time; 5-day treated (48 mg/kg)): 44.4 ± 1.9 min | hexobarbital sleep time (hexobarbital sleep time; acute control (single dose 48 mg/kg)): 34.3 ± 1.1 min | NADPH cytochrome c reductase activity (liver microsomal system; Sprague Dawley, 7 days): 105.0 ± 4.1 nmol/mg/min | p-nitroanisole O-demethylase activity (liver microsomal system; Sprague Dawley, 7 days): 0.62 ± 0.07 nmol/mg/min | liver microsomal enzyme activity (liver microsomal system): unaltered

COC[C@@H](NC(C)=O)C(=O)NCc1ccccc1 [Ex. 1, 2, (R)-N-Benzyl-2-Acetamide-3-methoxypropionamide]
liver necrosis (liver; 3.9 or 100 mg/kg daily): no evidence of causing liver necrosis | liability for serious drug-drug interactions and liver toxicity (battery of liver enzyme studies) (liver): relatively low | ESOPHAGUS (ES) NOT REMARKABLE (number of animals) [1, 2]: 10 | HEART (HT) ENLARGED (number of animals affected) [1, 2]: 0 | HEART (HT) NOT REMARKABLE (number of animals) [1, 2]: 10 | LIVER (LI) ENLARGED (number of animals affected) [1, 2]: 0 | LIVER (LI) NOT REMARKABLE (number of animals) [1, 2]: 10 | LIVER ORGAN-TO-BODY WT, mean [1, 2]: 3.237% | LUNG (LU) NOT REMARKABLE (number of animals) [1, 2]: 10 | PARATHYROID (PT) NOT REMARKABLE (number of animals) [1, 2]: 10 | SPLEEN (SP) NOT REMARKABLE (number of animals) [1, 2]: 10 | TERMINAL BODY WT, mean [1, 2]: 214.1 g | TRACHEA (TR) NOT REMARKABLE (number of animals) [1, 2]: 10 | ESOPHAGUS (ES) NOT REMARKABLE (number of animals) [1, 3]: 10 | HEART (HT) ENLARGED (number of animals affected) [1, 3]: 0 | HEART (HT) NOT REMARKABLE (number of animals) [1, 3]: 10 | LIVER (LI) ENLARGED (number of animals affected) [1, 3]: 0 | LIVER (LI) NOT REMARKABLE (number of animals) [1, 3]: 10 | LIVER ORGAN-TO-BODY WT, mean [1, 3]: 3.244% | LUNG (LU) NOT REMARKABLE (number of animals) [1, 3]: 10 | PARATHYROID (PT) NOT REMARKABLE (number of animals) [1, 3]: 10 | SPLEEN (SP) NOT REMARKABLE (number of animals) [1, 3]: 10 | TERMINAL BODY WT, mean [1, 3]: 207.0 g | TRACHEA (TR) NOT REMARKABLE (number of animals) [1, 3]: 10 | LIVER ORGAN-TO-BODY WT, mean [1, 4]: 3.608% | TERMINAL BODY WT, mean [1, 4]: 218.3 g | ESOPHAGUS (ES) NOT REMARKABLE (number of animals) [1, 5]: 10 | HEART (HT) ENLARGED (number of animals affected) [1, 5]: 0 | HEART (HT) NOT REMARKABLE (number of animals) [1, 5]: 10 | LIVER (LI) ENLARGED (number of animals affected) [1, 5]: 0 | LIVER (LI) NOT REMARKABLE (number of animals) [1, 5]: 10 | LUNG (LU) NOT REMARKABLE (number of animals) [1, 5]: 10 | PARATHYROID (PT) NOT REMARKABLE (number of animals) [1, 5]: 10 | SPLEEN (SP) NOT REMARKABLE (number of animals) [1, 5]: 10 | TRACHEA (TR) NOT REMARKABLE (number of animals) [1, 5]: 10 | LIVER ORGAN-TO-BODY WT, mean [1, 6]: 3.832* % | TERMINAL BODY WT, mean [1, 6]: 205.9 g | ESOPHAGUS (ES) NOT REMARKABLE (number of animals) [1, 7]: 10 | HEART (HT) ENLARGED (number of animals affected) [1, 7]: 0 | HEART (HT) NOT REMARKABLE (number of animals) [1, 7]: 10 | LIVER (LI) ENLARGED (number of animals affected) [1, 7]: 0 | LIVER (LI) NOT REMARKABLE (number of animals) [1, 7]: 10 | LUNG (LU) NOT REMARKABLE (number of animals) [1, 7]: 10 | PARATHYROID (PT) NOT REMARKABLE (number of animals) [1, 7]: 10 | SPLEEN (SP) NOT REMARKABLE (number of animals) [1, 7]: 10 | TRACHEA (TR) NOT REMARKABLE (number of animals) [1, 7]: 10 | ESOPHAGUS (ES) NOT REMARKABLE (number of animals) [1, 8]: 10 | HEART (HT) ENLARGED (number of animals affected) [1, 8]: 0 | HEART (HT) NOT REMARKABLE (number of animals) [1, 8]: 10 | LIVER (LI) ENLARGED (number of animals affected) [1, 8]: 0 | LIVER (LI) NOT REMARKABLE (number of animals) [1, 8]: 10 | LIVER ORGAN-TO-BODY WT, mean [1, 8]: 3.248% | LUNG (LU) NOT REMARKABLE (number of animals) [1, 8]: 10 | PARATHYROID (PT) NOT REMARKABLE (number of animals) [1, 8]: 10 | SPLEEN (SP) NOT REMARKABLE (number of animals) [1, 8]: 10 | TERMINAL BODY WT, mean [1, 8]: 342.0 g | TRACHEA (TR) NOT REMARKABLE (number of animals) [1, 8]: 10 | ESOPHAGUS (ES) NOT REMARKABLE (number of animals) [1, 9]: 10 | HEART (HT) ENLARGED (number of animals affected) [1, 9]: 0 | HEART (HT) NOT REMARKABLE (number of animals) [1, 9]: 10 | LIVER (LI) ENLARGED (number of animals affected) [1, 9]: 0 | LIVER (LI) NOT REMARKABLE (number of animals) [1, 9]: 10 | LIVER ORGAN-TO-BODY WT, mean [1, 9]: 3.278% | LUNG (LU) NOT REMARKABLE (number of animals) [1, 9]: 10 | PARATHYROID (PT) NOT REMARKABLE (number of animals) [1, 9]: 10 | SPLEEN (SP) NOT REMARKABLE (number of animals) [1, 9]: 10 | TERMINAL BODY WT, mean [1, 9]: 349.9 g | TRACHEA (TR) NOT REMARKABLE (number of animals) [1, 9]: 10 | LIVER ORGAN-TO-BODY WT, mean [1, 10]: 3.351% | TERMINAL BODY WT, mean [1, 10]: 351.5 g | ESOPHAGUS (ES) NOT REMARKABLE (number of animals) [1, 11]: 10 | HEART (HT) ENLARGED (number of animals affected) [1, 11]: 0 | HEART (HT) NOT REMARKABLE (number of animals) [1, 11]: 10 | LIVER (LI) ENLARGED (number of animals affected) [1, 11]: 0 | LIVER (LI) NOT REMARKABLE (number of animals) [1, 11]: 10 | LUNG (LU) NOT REMARKABLE (number of animals) [1, 11]: 10 | PARATHYROID (PT) NOT REMARKABLE (number of animals) [1, 11]: 10 | SPLEEN (SP) NOT REMARKABLE (number of animals) [1, 11]: 10 | TRACHEA (TR) NOT REMARKABLE (number of animals) [1, 11]: 10 | LIVER ORGAN-TO-BODY WT, mean [1, 12]: 4.016* % | TERMINAL BODY WT, mean [1, 12]: 358.8 g | ESOPHAGUS (ES) NOT REMARKABLE (number of animals) [1, 13]: 10 | HEART (HT) ENLARGED (number of animals affected) [1, 13]: 0 | HEART (HT) NOT REMARKABLE (number of animals) [1, 13]: 10 | LIVER (LI) ENLARGED (number of animals affected) [1, 13]: 1 | LIVER (LI) NOT REMARKABLE (number of animals) [1, 13]: 9 | LUNG (LU) NOT REMARKABLE (number of animals) [1, 13]: 10 | PARATHYROID (PT) NOT REMARKABLE (number of animals) [1, 13]: 10 | SPLEEN (SP) NOT REMARKABLE (number of animals) [1, 13]: 10 | TRACHEA (TR) NOT REMARKABLE (number of animals) [1, 13]: 10 | multiple of anti-convulsant dose causing no adverse histologic effects ([1]; rats, 30 days chronic dosing): 76.9
